Experimental data as given in patent US8815857B2 (Boehringer Ingelheim International GmbH, priority 2011, dated 2014).
≈ marks a conversion by molar mass, not a printed value.

Experiments:
physchem = settings: kinetic from dmso stock
[1] = target: T1, Recombinant human soluble guanylate cyclase (sGC), alpha 1 / beta 1 subunits, heme-free (Homo sapiens, UniProt Q02108+Q02153); experiment: Molecular assay: cGMP formation by heme-free recombinant sGC (CisBio cGMP detection kit); format: biochemical; settings: 300 pM heme-free sGC, 37° C., 60 min, cGMP readout; read-out: EC50 nM, Activity of Compounds in Molecular Assay
T1 construct: histidine tag (C); made in house; host or cells: Sf9 insect cells (baculovirus coinfection)
T1 sequence (Q02108 1-690 partner): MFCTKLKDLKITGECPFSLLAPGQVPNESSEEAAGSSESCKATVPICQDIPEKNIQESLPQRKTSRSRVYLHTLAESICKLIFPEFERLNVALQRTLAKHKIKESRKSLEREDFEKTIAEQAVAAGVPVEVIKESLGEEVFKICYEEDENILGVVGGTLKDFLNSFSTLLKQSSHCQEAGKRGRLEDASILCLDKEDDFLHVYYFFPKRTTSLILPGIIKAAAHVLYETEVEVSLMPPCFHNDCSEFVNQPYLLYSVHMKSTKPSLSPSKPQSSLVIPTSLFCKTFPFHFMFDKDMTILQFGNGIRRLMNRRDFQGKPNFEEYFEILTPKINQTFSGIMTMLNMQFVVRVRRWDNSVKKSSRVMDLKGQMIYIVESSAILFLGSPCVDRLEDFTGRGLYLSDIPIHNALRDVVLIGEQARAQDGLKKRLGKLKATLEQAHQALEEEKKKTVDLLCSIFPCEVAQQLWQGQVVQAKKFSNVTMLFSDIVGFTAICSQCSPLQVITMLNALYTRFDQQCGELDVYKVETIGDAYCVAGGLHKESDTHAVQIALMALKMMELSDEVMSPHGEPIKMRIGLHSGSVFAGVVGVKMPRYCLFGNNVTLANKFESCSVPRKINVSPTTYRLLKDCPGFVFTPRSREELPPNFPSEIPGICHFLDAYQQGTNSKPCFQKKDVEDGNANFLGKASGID
T1 sequence (Q02153 1-619): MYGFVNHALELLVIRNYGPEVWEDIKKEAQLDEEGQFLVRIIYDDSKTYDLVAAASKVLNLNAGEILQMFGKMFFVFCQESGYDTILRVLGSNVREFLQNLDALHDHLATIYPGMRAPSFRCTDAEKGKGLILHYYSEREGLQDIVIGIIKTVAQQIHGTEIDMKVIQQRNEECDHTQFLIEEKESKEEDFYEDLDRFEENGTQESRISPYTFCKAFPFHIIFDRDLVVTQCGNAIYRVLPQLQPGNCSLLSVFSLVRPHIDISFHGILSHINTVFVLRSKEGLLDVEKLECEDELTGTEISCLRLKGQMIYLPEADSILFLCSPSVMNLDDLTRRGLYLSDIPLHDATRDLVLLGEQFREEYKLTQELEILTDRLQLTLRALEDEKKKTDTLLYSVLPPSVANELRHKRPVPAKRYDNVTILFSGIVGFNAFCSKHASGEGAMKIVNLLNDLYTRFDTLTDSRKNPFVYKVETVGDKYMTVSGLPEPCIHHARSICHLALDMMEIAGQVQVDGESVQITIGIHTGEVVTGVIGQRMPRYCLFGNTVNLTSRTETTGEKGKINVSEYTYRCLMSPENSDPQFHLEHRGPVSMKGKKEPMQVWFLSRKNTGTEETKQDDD
In short: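 cGMP generated over 60 min at 37° C (pH 6.8 MOPS buffer, 50 nM GTP, 1.25 mM IBMX, 1% DMSO) by 300 pM heme-free sGC, expressed in Sf9 and heme-stripped with 0.5% Tween 20. HTRF ratios converted to nM cGMP; EC50 fitted from log concentration.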

[2] = Assessment of solubility: HT solubility in pION buffer, UV spectrophotometry; settings: kinetic from dmso stock
[3] = target: T2, human soluble guanylate cyclase alpha 1 and beta 1 subunits (sGC) stably expressed in Chinese hamster ovary cells (Homo sapiens, UniProt Q02108+Q02153); experiment: sGC cellular activator assay: cGMP in CHO cells expressing human sGC, preincubated with ODQ; format: cell-based; settings: 40 microM ODQ preincubation, 30 min at room temperature, presence or absence of 50% human serum not given, read-out: EC50 nM, Activity of Compounds in Cellular Assay
T2 construct: expressed in transfected cells; host or cells: Chinese hamster ovary cells, stably transfected
T2 sequence (Q02108 1-690 partner): T1 sequence (Q02108 1-690 partner)
T2 sequence (Q02153 1-619): T1 sequence (Q02153 1-619)
In short: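 EC50 values derive from HTRF cGMP measurement after test compounds act for thirty minutes at room temperature, with or without 50% human serum. Before dosing, the sGC-transfected CHO cells spend one hour with the inhibitor ODQ (40 microM) in IBMX- and 0.1% BSA-containing buffer.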

[4] = pION system solution buffer, pH 4.5, pH 4.5, aqueous buffer, Solubility (pH 4.5), pH 4.5 buffer, 16-19 h incubation, 1.0% DMSO
[5] = pION system solution buffer, pH 7.4, pH 7.4, aqueous buffer, Solubility (pH 7.4), pH 7.4 buffer, 16-19 h incubation, 1.0% DMSO

SMILES	EC50 [1]	solubility ([2]; pH 6.8, aqueous buffer, Solubility (pH 6.8), pH 6.8)	solubility [2, 4]	solubility [2, 5]	EC50 [3]	solubility (physchem; pH 4.5, aqueous buffer, Solubility (pH 4.5))	solubility (physchem; pH 7.4, aqueous buffer, Solubility (pH 7.4))
Cc1ccc(OCc2ccc(CN3CCN(C(=O)C4CC4)CC3)cc2C)c(-c2csc(N3CCC(C(=O)O)CC3)n2)c1 [Compound 198]	20 nM					37 µg/mL (≈ 62.8 µM)	> 58 µg/mL
Cc1ccc(OCc2ccc(CN3CCS(=O)(=O)CC3)cc2C)c(-c2csc(N3CCC(CC(=O)O)CC3)n2)c1 [Compound 219]	1000 nM		2.4 µg/mL (≈ 4.11 µM)	41 µg/mL (≈ 70.2 µM)	300 nM		
Cc1ccc(OCc2ccc(CN3CCS(=O)(=O)CC3)cc2C)c(-c2csc(N3C[C@H]4C[C@@H](C3)[C@H]4C(=O)O)n2)c1 [Compound 235]	47 nM		8.1 µg/mL (≈ 13.9 µM)	> 58 µg/mL	57 nM		
Cc1ccc(OCc2ccc(C(=O)N3CCCCC3)cc2C)c(-c2csc(N3C[C@H]4C[C@@H](C3)[C@H]4C(=O)O)n2)c1 [Compound 236]	190 nM		6.6 µg/mL (≈ 12.1 µM)	> 54 µg/mL	79 nM		
Cc1ccc(OCc2ccc(CN3CCOCC3)cc2C)c(-c2csc(N3C[C@H]4C[C@@H](C3)[C@H]4C(=O)O)n2)c1 [Compound 237]	240 nM		> 53 µg/mL	> 53 µg/mL	130 nM		
Cc1ccc(OCc2ccc(C(=O)N3CCCCC3)cc2C)c(-c2csc(N[C@@H]3CC[C@H](C(=O)O)C3)n2)c1 [Compound 239]	2900 nM		2.7 µg/mL (≈ 5.06 µM)	> 53 µg/mL	650 nM		
Cc1cc(CN2CCS(=O)(=O)CC2)ccc1COc1ccc(C#N)cc1-c1csc(N2CCC(C(=O)O)CC2)n1 [Compound 273]	320 nM		7.3 µg/mL (≈ 12.6 µM)	> 82 µg/mL	570 nM		
Cc1cc(C(=O)N2CCCCC2)ccc1COc1ccc(C#N)cc1-c1csc(N2CCC(C(=O)O)CC2)n1 [Compound 274]	1600 nM		0.95 µg/mL (≈ 1.74 µM)	> 54 µg/mL	600 nM		
Cc1cc(CN2CCS(=O)(=O)CC2)ccc1COc1ccc(F)cc1-c1csc(N2CC3CCC(C2)C3C(=O)O)n1 (stereo not shown) [Compound 275]	1800 nM		0.6 µg/mL (≈ 1 µM)	4 µg/mL (≈ 6.67 µM)	670 nM		
Cc1ccc(OCc2ccc(CN3CCC(F)CC3)cc2C)c(-c2csc(N3CCC(C(=O)O)CC3)n2)c1 [Compound 353]	470 nM		> 53 µg/mL	38 µg/mL (≈ 70.7 µM)	140 nM		

Further lines, with some results ahead:

EC50 [1]	solubility ([2]; pH 6.8, aqueous buffer, Solubility (pH 6.8), pH 6.8)	solubility [2, 4]	solubility [2, 5]	EC50 [3]	SMILES	solubility (physchem; pH 4.5, aqueous buffer, Solubility (pH 4.5))	solubility (physchem; pH 7.4, aqueous buffer, Solubility (pH 7.4))
22 nM	51 µg/mL (≈ 88.9 µM)	< 0.1 µg/mL	21 µg/mL (≈ 36.6 µM)	15 nM	Cc1ccc(OCc2ccc(C(=O)N3CCCCC3)cc2C)c(-c2csc(N3C[C@H]4CC[C@@H](C3)[C@@]4(C)C(=O)O)n2)c1 [Compound 214]		
49 nM		0.95 µg/mL (≈ 1.63 µM)	34 µg/mL (≈ 58.4 µM)	8.7 nM	Cc1ccc(OCc2ccc(CN3CCS(=O)(=O)CC3)cc2C)c(-c2csc(N3CCC4(C(=O)O)CC4C3)n2)c1 (stereo not shown) [Compound 217]		
170 nM		> 64 µg/mL	39 µg/mL (≈ 73.1 µM)	18 nM	Cc1ccc(OCc2ccc(CN3CCOCC3)cc2C)c(-c2csc(N3CCC4(C(=O)O)CC4C3)n2)c1 (stereo not shown) [Compound 218]		
6 nM		3.3 µg/mL (≈ 5.65 µM)	> 58 µg/mL	7.9 nM	Cc1ccc(OCc2ccc(CN3CCS(=O)(=O)CC3)cc2C)c(-c2csc(N3CCCC(C(=O)O)CC3)n2)c1 (stereo not shown) [Compound 234]		
45 nM		3.7 µg/mL (≈ 6.68 µM)	21 µg/mL (≈ 37.9 µM)	19 nM	Cc1cc(C(=O)N2CCCCC2)ccc1COc1ccc(Cl)cc1-c1csc(N2CCC(C(=O)O)CC2)n1 [Compound 271]		
120 nM		14 µg/mL (≈ 25.2 µM)	> 160 µg/mL	110 nM	Cc1cc(CN2CCS(=O)(=O)CC2)ccc1COc1ccccc1-c1csc(N2CCC(C(=O)O)CC2)n1 [Compound 272]		
74 nM		21 µg/mL (≈ 35.5 µM)	41 µg/mL (≈ 69.3 µM)	16 nM	Cc1ccc(OCc2ccc(CN3CCOCC3)cc2OC(F)(F)F)c(-c2csc(N3CCC(C(=O)O)CC3)n2)c1 [Compound 277]		
260 nM		> 56 µg/mL	> 56 µg/mL	170 nM	Cc1ccc(OCc2ccc(CN3CCN4CCCC4C3)cc2C)c(-c2csc(N3CCC(C(=O)O)CC3)n2)c1 (stereo not shown) [Compound 350]		
14 nM		22 µg/mL (≈ 36.7 µM)	> 59 µg/mL	76 nM	Cc1ccc(OCc2ccc(CN3CCN(C(=O)C4CC4)CC3)cc2C#N)c(-c2csc(N3CCC(C(=O)O)CC3)n2)c1 [Compound 352]		
